Reference: the kinase profiling compilation of Christmann-Franck et al. (2016)

Tests used:
Experiment in all cases: radiometric filter-binding kinase assay
BRSK2 (human) = BRSK2 (human) (UniProt Q8IWQ3)
AURKA (human) = AURKA (human) (UniProt O14965)
INSR (human) = INSR (human) (UniProt P06213)
MAP2K2 (human) = MAP2K2 (human) (UniProt P36507)
CSNK1D (human) = CSNK1D (human) (UniProt P48730)
MAPKAPK3 (human) = MAPKAPK3 (human) (UniProt Q16644)
MAPK12 (human) = MAPK12 (human) (UniProt P53778)
[1] = tested on: PAK2 (human), Q13177 [T402E]
PIM1 (human) = PIM1 (human) (UniProt P11309)
MAP3K7 TAB1 (human) = MAP3K7 TAB1 (human) (UniProt Q15750+O43318)
MAPK8 (human) = MAPK8 (human) (UniProt P45983)
INSRR (human) = INSRR (human) (UniProt P14616)
PLK1 (human) = PLK1 (human) (UniProt P53350)
CLK2 (human) = CLK2 (human) (UniProt P49760)
PIM3 (human) = PIM3 (human) (UniProt Q86V86)
MARK4 (human) = MARK4 (human) (UniProt Q96L34)
FLT1 (human) = FLT1 (human) (UniProt P17948)
EPHA4 (human) = EPHA4 (human) (UniProt P54764)
MELK (human) = MELK (human) (UniProt Q14680)
JAK2 JH1 JH2 (human) = JAK2 JH1 JH2 (human) (UniProt O60674)
TTK (human) = TTK (human) (UniProt P33981)
TBK1 (human) = TBK1 (human) (UniProt Q9UHD2)
CSK (human) = CSK (human) (UniProt P41240)
SYK (human) = SYK (human) (UniProt P43405)
FGFR1 (human) = FGFR1 (human) (UniProt P11362)
RIPK2 (human) = RIPK2 (human) (UniProt O43353)
IRAK4 (human) = IRAK4 (human) (UniProt Q9NWZ3)
[2] = tested on: SGK1 (human), O00141 [S422D]
BRSK1 (human) = BRSK1 (human) (UniProt Q8TDC3)
MYLK (human) = MYLK (human) (UniProt Q15746)
[3] = tested on: RPS6KB1 (human), P23443 [T412E]
RPS6KA3 KD1 KD2 (human) = RPS6KA3 KD1 KD2 (human) (UniProt P51812)
MAP3K11 (human) = MAP3K11 (human) (UniProt Q16584)
CDK2 CCNA2 (human) = CDK2 CCNA2 (human) (UniProt P20248+P24941)
EPHB2 (human) = EPHB2 (human) (UniProt P29323)

CSNK1D (human), sequence (P48730 whole entry, looked up): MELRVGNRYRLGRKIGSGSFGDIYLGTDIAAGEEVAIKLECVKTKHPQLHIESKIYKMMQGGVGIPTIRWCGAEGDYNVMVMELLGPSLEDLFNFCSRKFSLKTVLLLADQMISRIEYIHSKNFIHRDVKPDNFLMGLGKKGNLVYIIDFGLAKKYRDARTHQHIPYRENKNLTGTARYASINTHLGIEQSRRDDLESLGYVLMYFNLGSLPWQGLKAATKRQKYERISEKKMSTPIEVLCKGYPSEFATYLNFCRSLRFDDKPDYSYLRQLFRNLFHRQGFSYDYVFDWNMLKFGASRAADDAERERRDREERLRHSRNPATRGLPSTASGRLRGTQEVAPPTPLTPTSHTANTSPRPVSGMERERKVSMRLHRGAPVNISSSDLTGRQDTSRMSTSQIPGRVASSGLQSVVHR
BRSK1 (human), sequence (Q8TDC3 whole entry, looked up): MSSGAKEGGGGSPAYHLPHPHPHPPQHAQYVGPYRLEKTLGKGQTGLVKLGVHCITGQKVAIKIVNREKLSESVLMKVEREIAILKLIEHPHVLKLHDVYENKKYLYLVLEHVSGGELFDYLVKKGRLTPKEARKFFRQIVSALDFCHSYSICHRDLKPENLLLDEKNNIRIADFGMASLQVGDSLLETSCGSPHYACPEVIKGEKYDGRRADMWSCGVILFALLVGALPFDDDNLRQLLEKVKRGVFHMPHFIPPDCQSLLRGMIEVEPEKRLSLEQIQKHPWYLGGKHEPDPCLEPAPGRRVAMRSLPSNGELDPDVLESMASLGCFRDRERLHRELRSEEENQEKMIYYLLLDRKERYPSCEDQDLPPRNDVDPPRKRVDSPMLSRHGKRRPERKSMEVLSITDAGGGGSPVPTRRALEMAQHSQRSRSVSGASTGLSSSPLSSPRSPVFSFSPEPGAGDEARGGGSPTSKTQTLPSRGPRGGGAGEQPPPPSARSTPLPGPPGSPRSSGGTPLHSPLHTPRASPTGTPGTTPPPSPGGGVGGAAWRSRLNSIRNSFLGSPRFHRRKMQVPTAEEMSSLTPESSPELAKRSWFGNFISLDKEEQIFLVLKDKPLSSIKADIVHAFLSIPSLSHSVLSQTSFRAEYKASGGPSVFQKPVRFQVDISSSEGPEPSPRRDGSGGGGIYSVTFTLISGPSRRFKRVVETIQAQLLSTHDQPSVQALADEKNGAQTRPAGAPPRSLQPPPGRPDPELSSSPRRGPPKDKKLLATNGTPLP
MELK (human), sequence (Q14680 whole entry, looked up): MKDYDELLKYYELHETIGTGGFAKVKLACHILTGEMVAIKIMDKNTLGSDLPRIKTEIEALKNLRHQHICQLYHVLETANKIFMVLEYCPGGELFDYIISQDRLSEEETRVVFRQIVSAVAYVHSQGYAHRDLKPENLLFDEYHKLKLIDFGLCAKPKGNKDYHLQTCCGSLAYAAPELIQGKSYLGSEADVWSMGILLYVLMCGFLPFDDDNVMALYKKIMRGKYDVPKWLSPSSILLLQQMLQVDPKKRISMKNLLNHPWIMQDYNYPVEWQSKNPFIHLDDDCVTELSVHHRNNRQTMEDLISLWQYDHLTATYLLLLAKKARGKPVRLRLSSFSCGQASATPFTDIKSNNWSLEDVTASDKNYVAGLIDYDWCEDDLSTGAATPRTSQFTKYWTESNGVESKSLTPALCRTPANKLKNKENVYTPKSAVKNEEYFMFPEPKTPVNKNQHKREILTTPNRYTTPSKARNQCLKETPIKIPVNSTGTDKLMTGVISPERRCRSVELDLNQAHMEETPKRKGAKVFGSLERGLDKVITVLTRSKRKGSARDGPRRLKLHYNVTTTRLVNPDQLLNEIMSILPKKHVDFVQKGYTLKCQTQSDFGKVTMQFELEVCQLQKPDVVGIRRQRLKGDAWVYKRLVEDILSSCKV
SGK1 (human), O00141 [S422D], sequence (O00141 whole entry S422D, looked up): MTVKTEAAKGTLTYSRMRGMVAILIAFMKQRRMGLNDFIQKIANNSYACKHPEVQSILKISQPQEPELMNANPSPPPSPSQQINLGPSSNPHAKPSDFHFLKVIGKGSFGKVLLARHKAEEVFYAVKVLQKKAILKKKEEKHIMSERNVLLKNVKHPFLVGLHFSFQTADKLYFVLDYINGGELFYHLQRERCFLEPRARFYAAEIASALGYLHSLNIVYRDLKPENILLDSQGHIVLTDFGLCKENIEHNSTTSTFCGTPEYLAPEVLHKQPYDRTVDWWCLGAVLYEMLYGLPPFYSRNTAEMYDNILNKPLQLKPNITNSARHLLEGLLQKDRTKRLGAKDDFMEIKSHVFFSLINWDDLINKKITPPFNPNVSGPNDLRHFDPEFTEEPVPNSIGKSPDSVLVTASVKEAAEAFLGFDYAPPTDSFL
PIM1 (human), sequence (P11309 whole entry, looked up): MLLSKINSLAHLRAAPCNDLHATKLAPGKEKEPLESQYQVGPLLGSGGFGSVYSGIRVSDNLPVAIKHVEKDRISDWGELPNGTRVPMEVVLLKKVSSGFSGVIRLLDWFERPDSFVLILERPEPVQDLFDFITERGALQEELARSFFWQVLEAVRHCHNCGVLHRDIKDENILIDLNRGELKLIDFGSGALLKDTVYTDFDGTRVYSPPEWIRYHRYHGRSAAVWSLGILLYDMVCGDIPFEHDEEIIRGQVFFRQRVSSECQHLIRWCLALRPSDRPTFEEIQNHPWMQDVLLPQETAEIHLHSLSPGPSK
AURKA (human), sequence (O14965 whole entry, looked up): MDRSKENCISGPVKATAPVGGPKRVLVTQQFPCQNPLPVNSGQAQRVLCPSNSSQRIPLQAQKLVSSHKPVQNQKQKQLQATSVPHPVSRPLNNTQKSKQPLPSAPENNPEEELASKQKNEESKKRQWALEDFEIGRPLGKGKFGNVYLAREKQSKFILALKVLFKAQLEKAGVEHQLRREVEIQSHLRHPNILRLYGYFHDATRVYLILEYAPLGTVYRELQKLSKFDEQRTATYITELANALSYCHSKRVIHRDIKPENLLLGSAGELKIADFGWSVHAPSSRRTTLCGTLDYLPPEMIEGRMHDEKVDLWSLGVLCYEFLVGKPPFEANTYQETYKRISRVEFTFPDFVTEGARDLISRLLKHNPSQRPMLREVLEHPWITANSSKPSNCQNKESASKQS
IRAK4 (human), sequence (Q9NWZ3 whole entry, looked up): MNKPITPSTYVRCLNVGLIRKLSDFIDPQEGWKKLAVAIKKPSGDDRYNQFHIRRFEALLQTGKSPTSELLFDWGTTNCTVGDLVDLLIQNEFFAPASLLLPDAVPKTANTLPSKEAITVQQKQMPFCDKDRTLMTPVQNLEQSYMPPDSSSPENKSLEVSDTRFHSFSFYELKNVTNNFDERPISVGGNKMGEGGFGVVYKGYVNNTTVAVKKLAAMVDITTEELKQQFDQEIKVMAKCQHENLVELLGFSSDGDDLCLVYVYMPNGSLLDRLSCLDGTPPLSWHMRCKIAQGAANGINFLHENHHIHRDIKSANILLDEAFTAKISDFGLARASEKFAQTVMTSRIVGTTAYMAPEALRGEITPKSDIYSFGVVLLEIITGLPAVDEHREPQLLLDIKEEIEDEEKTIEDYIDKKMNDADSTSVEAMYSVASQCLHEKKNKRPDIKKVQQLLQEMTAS
INSR (human), sequence (P06213 whole entry, looked up): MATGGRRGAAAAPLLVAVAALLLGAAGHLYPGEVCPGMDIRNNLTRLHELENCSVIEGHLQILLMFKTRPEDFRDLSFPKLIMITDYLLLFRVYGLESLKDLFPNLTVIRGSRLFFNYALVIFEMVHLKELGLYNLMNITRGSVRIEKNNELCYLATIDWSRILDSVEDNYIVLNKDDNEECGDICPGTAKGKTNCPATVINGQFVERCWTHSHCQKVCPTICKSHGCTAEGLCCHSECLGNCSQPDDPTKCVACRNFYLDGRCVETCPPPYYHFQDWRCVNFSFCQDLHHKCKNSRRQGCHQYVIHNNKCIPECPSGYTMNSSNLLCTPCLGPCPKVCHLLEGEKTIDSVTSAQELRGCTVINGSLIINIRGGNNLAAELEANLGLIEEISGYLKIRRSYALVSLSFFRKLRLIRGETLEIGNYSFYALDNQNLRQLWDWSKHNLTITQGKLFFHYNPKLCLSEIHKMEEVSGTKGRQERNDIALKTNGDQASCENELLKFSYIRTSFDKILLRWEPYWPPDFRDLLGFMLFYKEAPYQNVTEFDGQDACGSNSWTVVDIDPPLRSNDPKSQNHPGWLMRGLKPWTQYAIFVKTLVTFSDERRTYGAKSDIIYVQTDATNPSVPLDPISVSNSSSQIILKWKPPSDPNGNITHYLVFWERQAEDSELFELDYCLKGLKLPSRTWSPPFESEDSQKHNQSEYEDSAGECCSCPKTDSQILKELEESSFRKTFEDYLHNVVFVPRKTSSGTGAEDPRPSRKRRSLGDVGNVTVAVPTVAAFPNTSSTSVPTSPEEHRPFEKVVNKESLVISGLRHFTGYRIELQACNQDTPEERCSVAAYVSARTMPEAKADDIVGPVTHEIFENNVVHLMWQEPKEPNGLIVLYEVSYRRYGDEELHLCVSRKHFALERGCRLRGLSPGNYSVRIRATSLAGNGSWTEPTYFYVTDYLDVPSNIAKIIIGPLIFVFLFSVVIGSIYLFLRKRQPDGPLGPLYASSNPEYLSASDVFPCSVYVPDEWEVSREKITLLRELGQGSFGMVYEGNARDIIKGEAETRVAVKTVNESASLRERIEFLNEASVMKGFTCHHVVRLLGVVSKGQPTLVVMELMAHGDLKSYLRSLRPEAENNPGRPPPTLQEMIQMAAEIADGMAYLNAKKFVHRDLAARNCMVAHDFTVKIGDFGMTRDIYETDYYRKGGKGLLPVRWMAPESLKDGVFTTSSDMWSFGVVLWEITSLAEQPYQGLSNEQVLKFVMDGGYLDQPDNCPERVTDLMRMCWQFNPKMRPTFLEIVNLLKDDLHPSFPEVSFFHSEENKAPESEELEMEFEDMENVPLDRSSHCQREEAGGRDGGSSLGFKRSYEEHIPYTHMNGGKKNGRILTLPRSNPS

`CNc1nc(-c2ccc3c(N)n[nH]c3c2)cc(N2C[C@@H](C(=O)NC3CCCCC3)CC[C@H]2C)n1` gave a residual activity (BRSK2 (human); compound 0.01 µM) of 114%, a residual activity (BRSK2 (human); compound 0.1 µM) of 110% and a residual activity (BRSK2 (human); compound 10.0 µM) of 15%. It also gave a residual activity (AURKA (human); compound 0.01 µM) of 112%, a residual activity (AURKA (human); compound 0.1 µM) of 115% and a residual activity (AURKA (human); compound 1.0 µM) of 98%. It also gave a residual activity (AURKA (human); compound 10.0 µM) of 89%, a residual activity (INSR (human); compound 0.01 µM) of 101% and a residual activity (INSR (human); compound 0.1 µM) of 103%. The residual activity (INSR (human); compound 1.0 µM) was 101%, the residual activity (INSR (human); compound 10.0 µM) was 89% and the residual activity (MAP2K2 (human); compound 1.0 µM) was 114%. The residual activity (MAP2K2 (human); compound 10.0 µM) was 94%, the residual activity (CSNK1D (human); compound 0.01 µM) was 100% and the residual activity (CSNK1D (human); compound 0.1 µM) was 108%. The residual activity (CSNK1D (human); compound 1.0 µM) was 96%, the residual activity (CSNK1D (human); compound 10.0 µM) was 88% and the residual activity (MAPKAPK3 (human); compound 0.01 µM) was 112%. For the same molecule, the residual activity (MAPKAPK3 (human); compound 0.1 µM) was 112%, the residual activity (MAPKAPK3 (human); compound 1.0 µM) was 91% and the residual activity (MAPKAPK3 (human); compound 10.0 µM) was 68%. It also gave a residual activity (MAPK12 (human); compound 0.01 µM) of 109%, a residual activity (MAPK12 (human); compound 0.1 µM) of 110% and a residual activity (MAPK12 (human); compound 1.0 µM) of 99%. It also gave a residual activity (MAPK12 (human); compound 10.0 µM) of 110%, a residual activity ([1]; compound 0.01 µM) of 105% and a residual activity ([1]; compound 0.1 µM) of 119%. For the same molecule, the residual activity ([1]; compound 1.0 µM) was 102%, the residual activity ([1]; compound 10.0 µM) was 77% and the residual activity (PIM1 (human); compound 0.01 µM) was 99%. For the same molecule, the residual activity (PIM1 (human); compound 0.1 µM) was 100%, the residual activity (PIM1 (human); compound 1.0 µM) was 112% and the residual activity (PIM1 (human); compound 10.0 µM) was 93%. It also gave a residual activity (MAP3K7 TAB1 (human); compound 1.0 µM) of 99%, a residual activity (MAP3K7 TAB1 (human); compound 10.0 µM) of 79% and a residual activity (MAPK8 (human); compound 0.01 µM) of 92%. For the same molecule, the residual activity (MAPK8 (human); compound 0.1 µM) was 108%, the residual activity (MAPK8 (human); compound 1.0 µM) was 94% and the residual activity (MAPK8 (human); compound 10.0 µM) was 108%. For the same molecule, the residual activity (INSRR (human); compound 0.01 µM) was 111%, the residual activity (INSRR (human); compound 0.1 µM) was 111% and the residual activity (INSRR (human); compound 1.0 µM) was 117%. For the same molecule, the residual activity (PLK1 (human); compound 0.01 µM) was 95%, the residual activity (PLK1 (human); compound 0.1 µM) was 113% and the residual activity (CLK2 (human); compound 1.0 µM) was 98%. The residual activity (CLK2 (human); compound 10.0 µM) was 88%, the residual activity (PIM3 (human); compound 0.01 µM) was 105% and the residual activity (PIM3 (human); compound 0.1 µM) was 112%. The residual activity (PIM3 (human); compound 1.0 µM) was 94%, the residual activity (PIM3 (human); compound 10.0 µM) was 73% and the residual activity (MARK4 (human); compound 0.01 µM) was 106%. It also gave a residual activity (MARK4 (human); compound 0.1 µM) of 114%, a residual activity (MARK4 (human); compound 1.0 µM) of 99% and a residual activity (MARK4 (human); compound 10.0 µM) of 103%. For the same molecule, the residual activity (FLT1 (human); compound 0.01 µM) was 98%, the residual activity (FLT1 (human); compound 0.1 µM) was 108% and the residual activity (FLT1 (human); compound 1.0 µM) was 89%. For the same molecule, the residual activity (FLT1 (human); compound 10.0 µM) was 64%, the residual activity (EPHA4 (human); compound 1.0 µM) was 86% and the residual activity (EPHA4 (human); compound 10.0 µM) was 98%. It also gave a residual activity (MELK (human); compound 0.01 µM) of 115%, a residual activity (MELK (human); compound 0.1 µM) of 77% and a residual activity (MELK (human); compound 1.0 µM) of 31%. For the same molecule, the residual activity (MELK (human); compound 10.0 µM) was 22%, the residual activity (JAK2 JH1 JH2 (human); compound 1.0 µM) was 108% and the residual activity (JAK2 JH1 JH2 (human); compound 10.0 µM) was 99%. For the same molecule, the residual activity (TTK (human); compound 0.01 µM) was 90%, the residual activity (TTK (human); compound 0.1 µM) was 98% and the residual activity (TTK (human); compound 1.0 µM) was 84%. The residual activity (TTK (human); compound 10.0 µM) was 61%, the residual activity (TBK1 (human); compound 0.01 µM) was 110% and the residual activity (TBK1 (human); compound 0.1 µM) was 115%. It also gave a residual activity (TBK1 (human); compound 1.0 µM) of 89%, a residual activity (TBK1 (human); compound 10.0 µM) of 81% and a residual activity (CSK (human); compound 0.01 µM) of 103%. For the same molecule, the residual activity (CSK (human); compound 0.1 µM) was 104%, the residual activity (CSK (human); compound 1.0 µM) was 100% and the residual activity (CSK (human); compound 10.0 µM) was 93%. The residual activity (SYK (human); compound 0.01 µM) was 109%, the residual activity (SYK (human); compound 0.1 µM) was 105% and the residual activity (SYK (human); compound 1.0 µM) was 104%. For the same molecule, the residual activity (SYK (human); compound 10.0 µM) was 105%, the residual activity (FGFR1 (human); compound 0.01 µM) was 119% and the residual activity (FGFR1 (human); compound 0.1 µM) was 119%. It also gave a residual activity (FGFR1 (human); compound 1.0 µM) of 105%, a residual activity (FGFR1 (human); compound 10.0 µM) of 88% and a residual activity (RIPK2 (human); compound 0.01 µM) of 110%. For the same molecule, the residual activity (RIPK2 (human); compound 0.1 µM) was 114%, the residual activity (RIPK2 (human); compound 1.0 µM) was 116% and the residual activity (RIPK2 (human); compound 10.0 µM) was 100%. For the same molecule, the residual activity (IRAK4 (human); compound 0.01 µM) was 109%, the residual activity (IRAK4 (human); compound 0.1 µM) was 112% and the residual activity (IRAK4 (human); compound 1.0 µM) was 92%. The residual activity (IRAK4 (human); compound 10.0 µM) was 99%, the residual activity ([2]; compound 0.01 µM) was 96% and the residual activity ([2]; compound 0.1 µM) was 96%. For the same molecule, the residual activity ([2]; compound 1.0 µM) was 81%, the residual activity ([2]; compound 10.0 µM) was 37% and the residual activity (BRSK1 (human); compound 0.01 µM) was 110%. The residual activity (BRSK1 (human); compound 0.1 µM) was 95%, the residual activity (BRSK1 (human); compound 1.0 µM) was 53% and the residual activity (BRSK1 (human); compound 10.0 µM) was 11%. The residual activity (MYLK (human); compound 0.01 µM) was 116%, the residual activity (MYLK (human); compound 0.1 µM) was 113% and the residual activity (MYLK (human); compound 1.0 µM) was 99%. The residual activity (MYLK (human); compound 10.0 µM) was 62%, the residual activity ([3]; compound 0.01 µM) was 111% and the residual activity ([3]; compound 0.1 µM) was 106%. It also gave a residual activity ([3]; compound 1.0 µM) of 108%, a residual activity ([3]; compound 10.0 µM) of 81% and a residual activity (RPS6KA3 KD1 KD2 (human); compound 0.1 µM) of 97%. The residual activity (RPS6KA3 KD1 KD2 (human); compound 1.0 µM) was 79%, the residual activity (RPS6KA3 KD1 KD2 (human); compound 10.0 µM) was 28% and the residual activity (MAP3K11 (human); compound 0.01 µM) was 100%. It also gave a residual activity (MAP3K11 (human); compound 0.1 µM) of 110%, a residual activity (MAP3K11 (human); compound 1.0 µM) of 80% and a residual activity (MAP3K11 (human); compound 10.0 µM) of 44%. It also gave a residual activity (CDK2 CCNA2 (human); compound 0.01 µM) of 104%, a residual activity (CDK2 CCNA2 (human); compound 0.1 µM) of 101% and a residual activity (CDK2 CCNA2 (human); compound 1.0 µM) of 103%. For the same molecule, the residual activity (CDK2 CCNA2 (human); compound 10.0 µM) was 85%, the residual activity (EPHB2 (human); compound 1.0 µM) was 119% and the residual activity (EPHB2 (human); compound 10.0 µM) was 111%.
